Source: patent US8410161B2, “Thioxanthone ring system derivatives” (National Defense Medical Center, priority 2010, dated 2013)

What was measured:
Type in all cases: cell-based
A3 cell lines = assay: MTT assay, A3 cell lines (lung cancer stem cell); conditions: for inhibition effect on A3 cell line (in words): summary of MTT cell viabilities
Description: Please to FIG. 4B, various cell viabilities of the A3 cell lines can be obtained through the MTT assay and illustrated in FIG. 4B while the compounds No. 1˜30 are used to treat A3 cell lines, wherein A3 cell lines are lung cancer stem cell.

A control cell lines = assay: MTT assay, A control cell lines (lung cancer cell)
Description: Please refer to Table 1 and FIGS. 4A-4C. According to a MTT assay (Table 1), various cell viabilities of the A control cell lines can be obtained and illustrated in FIG. 4A while the compounds No. 2˜30 are used to treat A control cell lines, wherein A control cell lines are lung cancer cell.

[1] = MTT assay, HEL299 fibroblast; conditions: human
Description: (§1) Please refer to FIG. 4C, various cell viabilities of the HEL299 cell lines can be obtained through the MTT assay while the compounds No. 1˜30 are used to treat HEL299 cell lines, wherein HEL299 cell lines are fibroblast.

HEL299 fibroblast = assay: MTT assay, HEL299 fibroblast
Description: as §1

| Structure (SMILES) | cell viabilities of A3 cell lines (MTT assay) (A3 cell lines) [%] | inhibition effect on A3 cell line (in words) (A3 cell lines) | cell viabilities of A control cell lines (MTT assay) (A control cell lines) [%] | viability [1] [%] | cytotoxicity effect on the normal fibroblast (in words) (HEL299 fibroblast) | inhibition effect on A control cell line (in words) (A control cell lines; summary of MTT cell viabilities) |
| --- | --- | --- | --- | --- | --- | --- |
| Cc1ccc(Sc2ccc3c(=O)c4ccccc4sc3c2Cl)c(C)c1 [No. 10, 4-Chloro-3-(2,4-dimethylphenylthio)-9H-thioxanthen-9-one] | 59.9 | inhibition effect | 104 ± 11.0 | 108 | without the cytotoxicity effect |  |
| O=c1c2ccccc2sc2c(Cl)c(SCc3ccc(Br)cc3)ccc12 [No. 25, 3-(4-Bromobenzylthio)-4-chloro-9H-thioxanthen-9-one] | 61.5 | inhibition effect | 40.8 | 79.3 | without the cytotoxicity effect | inhibition effect |
